Structures are written as SMILES.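 Step 1: Grow cells in 96-well plates. Step 2: Expose to compound for 48 hours at 5 concentrations. Step 3: Interpolate endpoints linearly; if unreached, use highest concentration. Abbreviation: GI50, concentration required for 50% inhibition of growth. TGI: concentration producing complete growth inhibition.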

Among the test systems are KM12 colon; SK-MEL-2 melanoma; MALME-3M melanoma; M14 melanoma; OVCAR-8 ovarian; ACHN renal; SNB-75 CNS; SK-OV-3 ovarian; IGROV1 ovarian; DU-145 prostate.
Common to all, as to test: NCI tumour cell line growth inhibition, 48 h

As to `C[C@H](NC(=O)c1c(C(F)F)nn(C)c1Oc1cccc(C(F)(F)F)c1)c1ccc(C(=O)O)cc1`, the GI50 in the assay with KM12 colon, in the assay with SK-MEL-2 melanoma, with MALME-3M melanoma, with M14 melanoma, in the assay on OVCAR-8 ovarian and with ACHN renal was > 100 µM each time. Moreover, the GI50 with SNB-75 CNS, in the assay with SK-OV-3 ovarian, with IGROV1 ovarian and with DU-145 prostate was > 100 µM throughout. The TGI with KM12 colon, in the assay on SK-MEL-2 melanoma, in the assay on MALME-3M melanoma, with M14 melanoma, in the assay with OVCAR-8 ovarian and with ACHN renal was > 100 µM throughout. Also, the TGI with SNB-75 CNS, in the assay on SK-OV-3 ovarian, in the assay on IGROV1 ovarian and with DU-145 prostate was > 100 µM in each case.
As to `C=C1C(=O)O[C@H]2[C@H]1CC/C(COC(=O)NCCc1cccc(OC)c1)=C\CC[C@@]1(C)O[C@@H]21`, the GI50 is 4.27 µM with KM12 colon; 1.73 µM in the assay with SK-MEL-2 melanoma; 1.84 µM in the assay on MALME-3M melanoma; 1.29 µM in the assay on M14 melanoma; 2.26 µM in the assay on OVCAR-8 ovarian; 1.12 µM with ACHN renal. Besides, the GI50 in the assay with SNB-75 CNS was 1.47 µM; with SK-OV-3 ovarian, 13.6 µM; in the assay on IGROV1 ovarian it was 1.26 µM; with DU-145 prostate, 0.892 µM. Moreover, the TGI with KM12 colon amounted to 15.6 µM; in the assay on SK-MEL-2 melanoma, 3.65 µM; in the assay with MALME-3M melanoma, 3.61 µM; in the assay on M14 melanoma, 2.92 µM; in the assay with OVCAR-8 ovarian, 8.03 µM; with ACHN renal, 2.58 µM. Further, the TGI with SNB-75 CNS is 4.71 µM; in the assay on SK-OV-3 ovarian, 27.7 µM; in the assay on IGROV1 ovarian, 3.05 µM; in the assay with DU-145 prostate, 2.16 µM.
In the case of `CCn1c(=N)sc2nc3ccccc3n2c1=O`, the TGI with KM12 colon, in the assay on SK-MEL-2 melanoma, with MALME-3M melanoma, with M14 melanoma, in the assay with OVCAR-8 ovarian and in the assay on ACHN renal was > 100 µM in each case. The TGI with SNB-75 CNS, with SK-OV-3 ovarian, with IGROV1 ovarian and in the assay on DU-145 prostate was > 100 µM throughout.
Take `NC(CSC(c1ccccc1)(c1ccccc1)c1ccc(F)cc1)C(=O)O` (stereo unspecified): the GI50 was 0.405 µM in the assay on KM12 colon; 1.95 µM with SK-MEL-2 melanoma; 2.39 µM with MALME-3M melanoma; 0.402 µM in the assay with M14 melanoma; 0.493 µM in the assay with OVCAR-8 ovarian; 5.04 µM in the assay on ACHN renal. For the same compound, the GI50 in the assay on SNB-75 CNS is 1.74 µM; in the assay on SK-OV-3 ovarian it was 0.348 µM; in the assay on IGROV1 ovarian, 0.856 µM; with DU-145 prostate, 0.815 µM. The TGI is 20.7 µM in the assay on KM12 colon; > 100 µM in the assay with MALME-3M melanoma; > 100 µM in the assay on M14 melanoma; 41.7 µM in the assay on OVCAR-8 ovarian; > 100 µM in the assay with ACHN renal; 24.1 µM in the assay on SK-OV-3 ovarian. In addition, the TGI in the assay on IGROV1 ovarian was > 100 µM; with DU-145 prostate, 4.05 µM.
As to `CCc1nn2ncccc2c1-c1ccnc(NC2CC2)n1`, the GI50 in the assay with KM12 colon, with SK-MEL-2 melanoma, in the assay on MALME-3M melanoma, in the assay with M14 melanoma, in the assay on OVCAR-8 ovarian and in the assay on ACHN renal was > 25 µM each time. In addition, the GI50 in the assay on SNB-75 CNS, in the assay on SK-OV-3 ovarian, in the assay on IGROV1 ovarian and in the assay on DU-145 prostate was > 25 µM in each case. Besides, the TGI in the assay with KM12 colon, in the assay with SK-MEL-2 melanoma, with MALME-3M melanoma, in the assay on M14 melanoma, in the assay on OVCAR-8 ovarian and in the assay with ACHN renal was > 25 µM throughout. Moreover, the TGI with SNB-75 CNS, in the assay with SK-OV-3 ovarian, in the assay on IGROV1 ovarian and in the assay on DU-145 prostate was > 25 µM throughout.
Turning to `COc1cc(Nc2ncnc(Nc3ccc4c(n3)NC(=O)C(C)(C)O4)n2)cc(OC)c1OC`, the GI50 is 0.395 µM in the assay on KM12 colon; > 100 µM in the assay on SK-MEL-2 melanoma; 8.69 µM with MALME-3M melanoma; 5.15 µM with M14 melanoma; 10.9 µM in the assay with OVCAR-8 ovarian; 0.16 µM with ACHN renal. The GI50 in the assay with SNB-75 CNS is 0.169 µM; with SK-OV-3 ovarian, 0.929 µM; in the assay on IGROV1 ovarian, 0.247 µM; in the assay on DU-145 prostate, 2.03 µM. The TGI in the assay on KM12 colon is > 100 µM; in the assay on SK-MEL-2 melanoma, > 100 µM; in the assay with MALME-3M melanoma it was > 100 µM; in the assay on M14 melanoma, > 100 µM; in the assay with OVCAR-8 ovarian, > 100 µM; with ACHN renal, 23.7 µM. Moreover, the figures for the TGI with SNB-75 CNS, with IGROV1 ovarian and in the assay on DU-145 prostate were 0.724 µM, 1.72 µM and > 100 µM, respectively.
With `Cc1cccc(Nc2cc(Cl)nc(SCC(=O)O)n2)c1C`, the TGI in the assay with KM12 colon, in the assay on SK-MEL-2 melanoma, with MALME-3M melanoma, with M14 melanoma, in the assay with OVCAR-8 ovarian and in the assay with ACHN renal was > 100 µM throughout. The TGI in the assay with SNB-75 CNS, in the assay on SK-OV-3 ovarian, in the assay on IGROV1 ovarian and in the assay with DU-145 prostate was > 100 µM throughout.
In the case of `Nc1ccccc1C(=O)NC(=O)Nc1ccc(Oc2ncc(Br)cn2)c(Cl)c1`, the TGI was 9.56 µM with KM12 colon; 5.65 µM in the assay with SK-MEL-2 melanoma; 11.6 µM in the assay with MALME-3M melanoma; 2.08 µM in the assay with M14 melanoma; 4.77 µM with OVCAR-8 ovarian; 30.8 µM in the assay on ACHN renal. Moreover, the TGI is 3.2 µM with SK-OV-3 ovarian, 7.83 µM in the assay on IGROV1 ovarian and 1.52 µM with DU-145 prostate. Moreover, the GI50 in the assay on SNB-75 CNS was 0.0035 µM.
As for `O=C(Nc1ccc2c(c1)OCCO2)C(=O)c1c[nH]c2ccccc12`, the GI50 was 0.469 µM in the assay with KM12 colon; 2.62 µM with SK-MEL-2 melanoma; 10.5 µM in the assay with MALME-3M melanoma; 0.839 µM in the assay with M14 melanoma; 2.37 µM in the assay on OVCAR-8 ovarian; 5.19 µM with ACHN renal. Also, the GI50 is 1.33 µM in the assay on SNB-75 CNS, 1.5 µM in the assay with SK-OV-3 ovarian, 3.09 µM with IGROV1 ovarian and 1.95 µM in the assay on DU-145 prostate. In addition, the TGI was > 100 µM with KM12 colon; 32.9 µM in the assay with SK-MEL-2 melanoma; > 100 µM in the assay with MALME-3M melanoma; > 100 µM in the assay on M14 melanoma; 35.7 µM in the assay with OVCAR-8 ovarian; > 100 µM in the assay on ACHN renal. The TGI in the assay on SNB-75 CNS is 5.96 µM; with SK-OV-3 ovarian, 8.62 µM; with IGROV1 ovarian, > 72.4 µM; in the assay on DU-145 prostate, 11.8 µM.
Turning to `Nc1ccc(-c2ccc3ncc4ccc(=O)n(-c5cccc(C(F)(F)F)c5)c4c3c2)cn1`, the GI50 with KM12 colon was < 0.0112 µM; in the assay on SK-MEL-2 melanoma, < 0.01 µM; with MALME-3M melanoma, < 0.01 µM; with M14 melanoma, < 0.01 µM; in the assay with OVCAR-8 ovarian it was < 0.01 µM; with ACHN renal, < 0.01 µM. The GI50 in the assay on SNB-75 CNS, in the assay on SK-OV-3 ovarian, in the assay on IGROV1 ovarian and in the assay with DU-145 prostate was < 0.01 µM throughout. In addition, the TGI was 1.45 µM in the assay on KM12 colon; 0.0572 µM in the assay on SK-MEL-2 melanoma; 0.0315 µM with MALME-3M melanoma; 0.266 µM in the assay on M14 melanoma; > 33.7 µM in the assay on OVCAR-8 ovarian; 0.0227 µM in the assay with SNB-75 CNS. Also, the values for the TGI in the assay with SK-OV-3 ovarian, with IGROV1 ovarian and in the assay on DU-145 prostate were 0.0222 µM, 0.314 µM and 30.8 µM, respectively.
On to `C=C(CN1c2ccccc2Sc2ccccc21)c1ccc(C(=O)Nc2ccccc2N)cc1`, for which the GI50 is 5.84 µM in the assay on KM12 colon; > 100 µM with SK-MEL-2 melanoma; > 23 µM with MALME-3M melanoma; 32.9 µM with M14 melanoma; > 80.4 µM in the assay on OVCAR-8 ovarian; > 71.7 µM in the assay on ACHN renal. In addition, the GI50 in the assay with SNB-75 CNS was 15.8 µM; in the assay with SK-OV-3 ovarian it was 11.7 µM; in the assay with IGROV1 ovarian it was 28.1 µM; in the assay with DU-145 prostate it was > 100 µM. For the same compound, the TGI in the assay with KM12 colon, in the assay on SK-MEL-2 melanoma, in the assay on MALME-3M melanoma, in the assay with M14 melanoma, in the assay on OVCAR-8 ovarian and in the assay on ACHN renal was > 100 µM in each case. For the same compound, the TGI in the assay on SNB-75 CNS, with SK-OV-3 ovarian, with IGROV1 ovarian and with DU-145 prostate was > 100 µM in each case.

The values are drawn from PubChem BioAssay (NCI).
